Assay results from ChEMBL document CHEMBL4152270, “Free radical rearrangement synthesis and microbiological evaluation of novel 2-sulfoether-4-quinolone scaffolds as potential antibacterial agents” (Eur J Med Chem, 2018).
In brackets after ≈: the same amount, converted by molar mass. Activity calls are given as the source filed them. The calls are words filed in the database; no cut-off is given here.

How the values were obtained:
Staphylococcus aureus [1] = test: Antimicrobial activity against Staphylococcus aureus after 18 to 20 hrs by micro broth dilution method; assay type: functional
Bacillus cereus [2] = test: Antimicrobial activity against Bacillus cereus after 18 to 20 hrs by micro broth dilution method; assay type: functional
Pseudomonas aeruginosa = test: Antimicrobial activity against Pseudomonas aeruginosa after 18 to 20 hrs by micro broth dilution method; assay type: functional
Escherichia coli = test: Antimicrobial activity against Escherichia coli after 18 to 20 hrs by micro broth dilution method; assay type: functional
Staphylococcus aureus [3] = test: Bactericidal activity against Staphylococcus aureus after 24 hrs by micro broth dilution method; assay type: functional
Bacillus cereus [4] = test: Bactericidal activity against Bacillus cereus after 24 hrs by micro broth dilution method; assay type: functional
Staphylococcus aureus [5] = test: Antimicrobial activity against methicillin-resistant Staphylococcus aureus after 18 to 20 hrs by micro broth dilution method; assay type: functional
Candida albicans = test: Antimicrobial activity against Candida albicans after 18 to 20 hrs by micro broth dilution method; assay type: functional
Staphylococcus aureus [6] = test: Growth inhibition of Staphylococcus aureus at 1 to 4 times MIC after 24 hrs; assay type: functional, organism-based
Staphylococcus aureus [7] = test: Growth inhibition of Staphylococcus aureus at 0.25 to 0.5 times MIC after 24 hrs; assay type: functional, organism-based
DNA gyrase subunit A = DNA gyrase subunit A (Staphylococcus aureus, UniProt P20831); test: Inhibition of Staphylococcus aureus DNA gyrase subunit A supercoiling activity using relaxed pBR322 DNA as substrate after 60 mins by agarose gel electrophoresis
Staphylococcus aureus [8] = test: Induction of morphological changes in Staphylococcus aureus ATCC 6538 assessed as cell wall swelling at 0.8 uM after 24 hrs by transmission electron microscopy; assay type: functional, organism-based
Staphylococcus aureus [9] = test: Induction of cell wall damage in Staphylococcus aureus ATCC 6538 assessed as emergence of solute loss at 0.8 uM after 24 hrs by transmission electron microscopy; assay type: functional, organism-based
Staphylococcus aureus [10] = test: Induction of cell wall damage in Staphylococcus aureus ATCC 6538 assessed as blemishes on cell wall at 0.8 uM after 24 hrs by transmission electron microscopy; assay type: functional, organism-based
Staphylococcus aureus [11] = test: Induction of morphological changes in Staphylococcus aureus ATCC 6538 assessed as shrinkage of cell morphology at 0.8 uM after 24 hrs by transmission electron microscopy; assay type: functional, organism-based
Staphylococcus aureus [12] = test: Induction of cell death in Staphylococcus aureus ATCC 6538 at 0.8 uM after 24 hrs by transmission electron microscopy; assay type: functional, organism-based

Sequence of DNA gyrase subunit A (P20831 whole entry): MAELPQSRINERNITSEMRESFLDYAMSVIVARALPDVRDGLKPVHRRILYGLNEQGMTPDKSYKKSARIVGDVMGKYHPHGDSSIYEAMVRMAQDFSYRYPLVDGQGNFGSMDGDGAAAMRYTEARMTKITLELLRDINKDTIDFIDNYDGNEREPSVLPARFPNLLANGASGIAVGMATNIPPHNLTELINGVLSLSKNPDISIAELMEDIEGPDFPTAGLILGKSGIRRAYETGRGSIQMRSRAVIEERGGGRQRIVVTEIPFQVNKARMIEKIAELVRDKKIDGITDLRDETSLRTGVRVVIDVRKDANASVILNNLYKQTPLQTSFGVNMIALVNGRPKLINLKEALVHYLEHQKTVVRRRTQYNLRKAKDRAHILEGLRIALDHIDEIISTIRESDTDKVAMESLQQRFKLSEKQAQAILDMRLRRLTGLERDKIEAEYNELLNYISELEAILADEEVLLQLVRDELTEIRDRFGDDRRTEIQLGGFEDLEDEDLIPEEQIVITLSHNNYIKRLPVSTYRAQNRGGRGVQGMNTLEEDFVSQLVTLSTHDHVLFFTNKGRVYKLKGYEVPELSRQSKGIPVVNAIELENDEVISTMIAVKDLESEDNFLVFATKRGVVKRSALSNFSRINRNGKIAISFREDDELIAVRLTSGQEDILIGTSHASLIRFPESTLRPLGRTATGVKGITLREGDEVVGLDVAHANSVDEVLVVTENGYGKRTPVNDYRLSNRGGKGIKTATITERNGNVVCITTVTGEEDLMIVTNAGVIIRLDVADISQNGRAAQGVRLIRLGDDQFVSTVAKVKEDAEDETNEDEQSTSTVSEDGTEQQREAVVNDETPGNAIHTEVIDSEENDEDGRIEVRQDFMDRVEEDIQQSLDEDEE

Row | Compound | MIC (Staphylococcus aureus [1]) [µM] | MIC (Bacillus cereus [2]) [µM] | MIC (Pseudomonas aeruginosa) [µM] | MIC (Escherichia coli) [µM] | MBC (Staphylococcus aureus [3]) [µM] | MBC (Bacillus cereus [4]) [µM] | MIC (Staphylococcus aureus [5]) [µM] | MIC (Candida albicans) | growth inhibition (GI) (Staphylococcus aureus [6]) | growth inhibition (GI) (Staphylococcus aureus [7]) | IC50 (DNA gyrase subunit A) [µM] | Activity (Staphylococcus aureus [8]) | Activity (Staphylococcus aureus [9]) | Activity (Staphylococcus aureus [10]) | Activity (Staphylococcus aureus [11]) | Activity (Staphylococcus aureus [12])
1 | GENTAMICIN | 0.8 | 1.6 | 1 | 0.125 | 3.2 | 3.2 | > 200 | – | – | – | – | – | – | – | – | –
2 | COc1ccc(C(F)(F)F)c2c(=O)c(C(C)=O)c(SC)[nH]c12 | > 200 | > 200 | > 200 | > 200 | – | – | – | > 200 µM | – | – | – | – | – | – | – | –
3 | COc1ccc2[nH]c(SC)c(C(C)=O)c(=O)c2c1 | > 200 | > 200 | > 200 | > 200 | – | – | – | > 200 µM | – | – | – | – | – | – | – | –
4 | CSc1[nH]c2c(C(F)(F)F)ccc(C(F)(F)F)c2c(=O)c1C(C)=O | 0.8 (≈ 0.295 µg/mL) | 1.6 (≈ 0.591 µg/mL) | > 200 | > 200 | 6.25 (≈ 2.31 µg/mL) | 6.25 (≈ 2.31 µg/mL) | > 200 | 200 µM | Active | inactive | 1.92 | Active | Active | Active | Active | Active
5 | CC(=O)c1c(O)[nH]c2ccc(C(F)(F)F)cc2c1=O | > 200 | > 200 | > 200 | > 200 | – | – | – | > 200 µM | – | – | – | – | – | – | – | –
6 | CSc1[nH]c2ccc(C)cc2c(=O)c1C(C)=O | > 200 | > 200 | > 200 | > 200 | – | – | – | > 200 µM | – | – | – | – | – | – | – | –
7 | CSc1[nH]c2c(Cl)cc([N+](=O)[O-])cc2c(=O)c1C(C)=O | 12.5 (≈ 3.91 µg/mL) | 6.25 (≈ 1.95 µg/mL) | > 200 | > 200 | > 200 | > 200 | > 200 | > 200 µM | – | – | 80.3 | – | – | – | – | –
8 | CSc1[nH]c2ccc(OC(F)(F)F)cc2c(=O)c1C(C)=O | 3.12 (≈ 0.992 µg/mL) | 12.5 (≈ 3.97 µg/mL) | > 200 | > 200 | 25 (≈ 7.93 µg/mL) | 25 (≈ 7.93 µg/mL) | > 200 | > 200 µM | – | – | – | – | – | – | – | –
9 | CSc1[nH]c2c(C)cccc2c(=O)c1C(C)=O | > 200 | > 200 | > 200 | > 200 | – | – | – | > 200 µM | – | – | – | – | – | – | – | –
10 | CSc1[nH]c2c(Cl)cc(C(F)(F)F)cc2c(=O)c1C(C)=O | 0.8 (≈ 0.269 µg/mL) | 1.6 (≈ 0.537 µg/mL) | > 200 | > 200 | 6.25 (≈ 2.1 µg/mL) | 6.25 (≈ 2.1 µg/mL) | > 200 | > 200 µM | Active | inactive | 8.01 | – | – | – | – | –
11 | C[C@@H]1[C@H](O)[C@@H](C)/C=C/C=C/C=C/C=C/C=C/C=C/C=C/[C@H](O[C@@H]2O[C@H](C)[C@@H](O)[C@H](N)[C@@H]2O)C[C@@H]2O[C@](O)(C[C@@H](O)C[C@@H](O)[C@H](O)CC[C@@H](O)C[C@@H](O)CC(=O)O[C@H]1C)C[C@H](O)[C@H]2C(=O)O [AMPHOTERICIN B] | – | – | – | – | – | – | – | 0.2 µg/mL | – | – | – | – | – | – | – | –
12 | CSc1[nH]c2ccc(Br)cc2c(=O)c1C(C)=O | 25 (≈ 7.8 µg/mL) | 200 (≈ 62.4 µg/mL) | > 200 | > 200 | – | – | – | > 200 µM | – | – | – | – | – | – | – | –
13 | CSc1[nH]c2cc(Br)ccc2c(=O)c1C(C)=O | 12.5 (≈ 3.9 µg/mL) | 200 (≈ 62.4 µg/mL) | > 200 | > 200 | – | – | – | > 200 µM | – | – | – | – | – | – | – | –
14 | CSc1[nH]c2cc(C(F)(F)F)ccc2c(=O)c1C(C)=O | 3.12 (≈ 0.942 µg/mL) | 50 (≈ 15.1 µg/mL) | > 200 | > 200 | 6.25 (≈ 1.88 µg/mL) | > 200 | > 200 | > 200 µM | – | – | – | – | – | – | – | –
15 | OC(Cn1cncn1)(Cn1cncn1)c1ccc(F)cc1F [FLUCONAZOLE] | – | – | – | – | – | – | – | 1 µg/mL | – | – | – | – | – | – | – | –
16 | COc1cccc2c(=O)c(C(C)=O)c(SC)[nH]c12 | > 200 | > 200 | > 200 | > 200 | – | – | – | > 200 µM | – | – | – | – | – | – | – | –
17 | CN(C)[C@@H]1C(O)=C(C(N)=O)C(=O)[C@@]2(O)C(O)=C3C(=O)c4c(O)cccc4[C@@](C)(O)[C@H]3C[C@@H]12 [TETRACYCLINE] | 0.0325 (≈ 0.0144 µg/mL) | 1.6 (≈ 0.711 µg/mL) | 2 (≈ 0.889 µg/mL) | 0.25 (≈ 0.111 µg/mL) | 0.125 (≈ 0.0556 µg/mL) | 3.2 (≈ 1.42 µg/mL) | 200 (≈ 88.9 µg/mL) | – | – | – | – | – | – | – | – | –
18 | CSc1[nH]c2cc(C(F)(F)F)c(C#N)cc2c(=O)c1C(C)=O | 0.8 (≈ 0.261 µg/mL) | 1.6 (≈ 0.522 µg/mL) | > 200 | > 200 | 25 (≈ 8.16 µg/mL) | 25 (≈ 8.16 µg/mL) | > 200 | 200 µM | Active | inactive | 6.47 | – | – | – | – | –
19 | CCSc1[nH]c2ccc(C(F)(F)F)cc2c(=O)c1C(C)=O | 6.25 (≈ 1.97 µg/mL) | 25 (≈ 7.88 µg/mL) | > 200 | > 200 | 25 (≈ 7.88 µg/mL) | 50 (≈ 15.8 µg/mL) | > 200 | > 200 µM | – | – | 16.2 | – | – | – | – | –
20 | CSc1[nH]c2c(Br)cccc2c(=O)c1C(C)=O | 6.25 (≈ 1.95 µg/mL) | > 200 | > 200 | > 200 | 25 (≈ 7.8 µg/mL) | > 200 | > 200 | > 200 µM | – | – | – | – | – | – | – | –
21 | CSc1[nH]c2c(Cl)cccc2c(=O)c1C(C)=O | > 200 | > 200 | > 200 | > 200 | – | – | – | > 200 µM | – | – | – | – | – | – | – | –
22 | CC(=O)c1c([S+](C)[O-])[nH]c2ccc(C(F)(F)F)cc2c1=O (stereo not drawn) | 12.5 (≈ 3.97 µg/mL) | 3.12 (≈ 0.992 µg/mL) | > 200 | > 200 | 50 (≈ 15.9 µg/mL) | 50 (≈ 15.9 µg/mL) | > 200 | > 200 µM | – | – | – | – | – | – | – | –
23 | CSc1[nH]c2ccccc2c(=O)c1C(C)=O | > 200 | > 200 | > 200 | > 200 | – | – | – | > 200 µM | – | – | – | – | – | – | – | –
24 | CSc1[nH]c2c(F)ccc(C(F)(F)F)c2c(=O)c1C(C)=O | 0.8 (≈ 0.255 µg/mL) | 3.12 (≈ 0.998 µg/mL) | > 200 | > 200 | 6.25 (≈ 2 µg/mL) | 6.25 (≈ 2 µg/mL) | > 200 | 200 µM | – | – | 2.47 | – | – | – | – | –
25 | CSc1[nH]c2ccc(C(F)(F)F)cc2c(=O)c1C(C)=O | 6.25 (≈ 1.88 µg/mL) | 50 (≈ 15.1 µg/mL) | > 200 | > 200 | 25 (≈ 7.53 µg/mL) | > 200 | > 200 | > 200 µM | – | – | – | – | – | – | – | –
26 | CSc1[nH]c2c(Cl)ccc(C(F)(F)F)c2c(=O)c1C(C)=O | 0.8 (≈ 0.269 µg/mL) | 1.6 (≈ 0.537 µg/mL) | > 200 | > 200 | 12.5 (≈ 4.2 µg/mL) | 12.5 (≈ 4.2 µg/mL) | > 200 | > 200 µM | Active | inactive | – | – | – | – | – | –
27 | CC1COc2c(N3CCN(C)CC3)c(F)cc3c(=O)c(C(=O)O)cn1c23 (stereo not drawn) [OFLOXACIN] | 0.125 (≈ 0.0452 µg/mL) | 0.8 (≈ 0.289 µg/mL) | 4 (≈ 1.45 µg/mL) | 0.5 (≈ 0.181 µg/mL) | 0.5 (≈ 0.181 µg/mL) | 1.6 (≈ 0.578 µg/mL) | 100 (≈ 36.1 µg/mL) | – | – | – | – | – | – | – | – | –
